Measured values: patent US9862680B2, “Peripherally substituted monocyclic beta-lactams” (University of Notre Dame du Lac, priority 2016, dated 2018)

How the values were obtained:
[1] = system: panel of Gram-positive and Gram-negative bacteria; test: MIC determination; format: cell-based; conditions: same panel of Gram-positive and Gram-negative bacteria, all values
[2] = system: panel of Gram-positive and Gram-negative bacteria; test: Kirby-Bauer agar diffusion assays, results in words; format: cell-based
Method: (§1) Antibacterial activity of the compounds was determined by a modified Kirby-Bauer^27-28 agar-diffusion assay. Overnight cultures of test organisms were grown in LB broth for 18-24h and standard suspensions of […] were prepared in saline solution (0.9% NaCl) according to a 0.5 BaSO4 McFarland Standard. This standardized suspension (0.1 mL) was added to 34 mL of sterile, Mueller Hinton No. 2 agar tempered to 47-50° C. After gentle mixing, the inoculated agar media was poured into a sterile plastic petri dish (145 mm×20 mm) and allowed to solidify near a flame with the lid cracked for 30 min. Wells of 9.0 mm diameter were cut from the petri dish agar and filled with exactly 50 μL of the test sample solution. For studies using mixtures of compounds, both test compounds were diluted to equal concentrations and 50 μL of the mixed compound solution was added to the cut well. The petri dish was incubated at 37° C. for 18-24 h and the inhibition zone diameters were measured (mm) with an electronic caliper after 24-48 h.
(§2) All compound-containing solutions were prepared by first making a 20 mM solution of the compound in DMSO and then diluting that solution 10-fold with MeOH to give the final 2 mM solution used in the assay.
(§3) Plates were incubated after inoculation at 37° C. for 20 hours. Plates were photographed after 1 day. M. vaccae required a longer incubation time, 48 hours, and was photographed after 3 days.

[3] = system: M. Vaccae IMET 10670; test: Agar diffusion assay (modified Kirby-Bauer); format: cell-based; conditions: 2 mM solution, 50 μL in 9.0 mm well, 48 hours incubation, P unclear, V very unclear zone, * slightly misshapen zone
Method: as §1, §2, §3

[4] = system: E. Coli DC0; test: Agar diffusion assay (modified Kirby-Bauer); format: cell-based; conditions: 2 mM solution, 50 μL in 9.0 mm well, P unclear, V very unclear zone, * slightly misshapen zone
Method: as §1, §2, §3

[5] = system: B. Subtilis ATCC 6633; test: Agar diffusion assay (modified Kirby-Bauer); format: cell-based; conditions: 2 mM solution, 50 μL in 9.0 mm well, P unclear, V very unclear zone, * slightly misshapen zone
Method: as §1, §2, §3

[6] = system: E. Coli DC2; test: Agar diffusion assay (modified Kirby-Bauer); format: cell-based; conditions: E. Coli DC2, 2 mM solution, 50 μL in 9.0 mm well, P unclear, V very unclear zone, * slightly misshapen zone
Method: as §1, §2, §3

[7] = system: A. Baumannii ATCC 17961; test: Agar diffusion assay (modified Kirby-Bauer); format: cell-based; conditions: 2 mM solution, 50 μL in 9.0 mm well, P unclear, V very unclear zone, * slightly misshapen zone
Method: as §1, §2, §3

[8] = system: M. Luteus ATCC 10240; test: Agar diffusion assay (modified Kirby-Bauer); format: cell-based; conditions: M. Luteus ATCC 10240, 2 mM solution, 50 μL in 9.0 mm well, P unclear, V very unclear zone, * slightly misshapen zone
Method: as §1, §2, §3

[9] = system: P. Aeruginosa K799/61; test: Agar diffusion assay (modified Kirby-Bauer); format: cell-based; conditions: P. Aeruginosa K799/61 (permeability mutant); 2 mM solution, 50 μL in 9.0 mm well; P unclear, V very unclear zone, * slightly misshapen zone
Method: as §1, §2, §3

[10] = system: P. Aeruginosa K799/wt; test: Agar diffusion assay (modified Kirby-Bauer); format: cell-based; conditions: P. Aeruginosa K799/wt (wild type); 2 mM solution, 50 μL in 9.0 mm well; P unclear, V very unclear zone, * slightly misshapen zone
Method: as §1, §2, §3

[11] = system: S. Aureus SG511; test: Agar diffusion assay (modified Kirby-Bauer); format: cell-based; conditions: 2 mM solution, 50 μL in 9.0 mm well, P unclear, V very unclear zone, * slightly misshapen zone
Method: as §1, §2, §3

[12] = system: B. Dolosa AU 0018; test: Agar diffusion assay (modified Kirby-Bauer); format: cell-based; conditions: 2 mM solution, 50 μL in 9.0 mm well, P unclear, V very unclear zone, * slightly misshapen zone
Method: as §1, §2, §3

[13] = biological target: PAM 2035; test: β-lactamase inhibition, Ki by enzyme kinetics; format: biochemical; conditions: PAM 2035, class C
[14] = system: selected β-lactamase enzymes from classes A, B, C and D; test: β-lactamase inhibitory activity, results in words; format: biochemical; conditions: C and D (Ambler classification)
Method: (§4) To the first row of a 2-mL deep 96-well block was added 1 mL of 50 mM sodium phosphate buffer at pH 7 with 0.1 mg/mL BSA (bovine serum albumin). To the first row was added an appropriate amount of a 10 mg/mL solution of the compound to be tested to make a 640 μM (4×) solution. Each of the other wells in the 96-well block were charged with 750 μL of the aforementioned buffer. The rows were then repeatedly diluted 1:3 so that the final concentrations of the individual 96-well plates would range in concentrations from 160 μM to 3 nM (8 dilutions). The master block was then used to add 50 pt to each corresponding well in the 96-well flat-bottom plate. An additional 50 of buffer was added to each well. Once the plates were prepared, 50 μL of the enzyme to be tested against were added in buffer to each well [KPC-2 (0.147 mg/mL), CTX-M-14 (0.102 mg/mL), […] (0.331 mg/mL), AmpC (0.699 mg/mL), SHV-12 (0.111 mg/mL), NDM-1 (0.110 mg/mL)]. The plates were incubated at rt for 10 min before 50 μL. of an appropriate indicator were added to each well and the optical density at 495 nm was measured over time. For each enzyme, other than NDM-1, nitrocefin was used. Nitrocefin (10 μM for SHV-12, 50 μM for the other enzymes), was appropriate because when cleaved by a β-lactamase, the color changes from yellow to red. For NDM-1, imipenem (10 μM) was the indicator of choice. Rather than observe the growing presence of optical density at 495 nm, as with nitrocefin, the disappearance of imipenem was monitored. The inhibition curves were monitored and used to perform enzyme kinetics according to Waley to determine the Ki (μM) of each compound against the β-lactamases screened.

[15] = biological target: T1, NDM-1 (Klebsiella pneumoniae, UniProt C7C422); test: β-lactamase inhibition, Ki by enzyme kinetics (imipenem); format: biochemical; conditions: NDM-1, class B
T1 construct: purchased Emerald Bioscience
Method: (§5) The enzymes KPC-2, Oxa-48, AmpC and NDM-1 were purchased from Emerald Bioscience and the enzymes CTX-14 and SHV-12 were expressed and purified from E. coli at Rempex pharmaceutical (San Diego, Calif.).
as §4

[16] = biological target: VIM-1 (Pseudomonas aeruginosa, UniProt A0A0F7KYQ8); test: β-lactamase inhibition, Ki by enzyme kinetics; format: biochemical; conditions: VIM-1, class B
[17] = biological target: T2, KPC-2 (Klebsiella pneumoniae, UniProt Q9F663); test: β-lactamase inhibition, Ki by enzyme kinetics (nitrocefin); format: biochemical; conditions: KPC-2, class A
T2 construct: purchased Emerald Bioscience
Method: as §5, §4

[18] = biological target: T3, CTX-M-14 (Escherichia coli, UniProt Q9L5C7); test: as above; format: biochemical; conditions: CTX-M-14, class A
T3 construct: host or cells: E. coli
Method: as §5, §4

[19] = biological target: T4, Oxa-48 (Klebsiella pneumoniae, UniProt Q6XEC0); test: as above; format: biochemical; conditions: Oxa-48, class D
T4 construct: purchased Emerald Bioscience
Method: as §5, §4

[20] = biological target: T5, SHV-12 (Klebsiella pneumoniae, UniProt P0AD64, E235K/G234S/L31Q); test: as above; format: biochemical; conditions: SHV-12, class A
T5 construct: host or cells: E. coli
Method: as §5, §4

[21] = biological target: AmpC; test: as above; format: biochemical; conditions: class C
Method: as §5, §4

T2 sequence (Q9F663 25-293 limits assumed): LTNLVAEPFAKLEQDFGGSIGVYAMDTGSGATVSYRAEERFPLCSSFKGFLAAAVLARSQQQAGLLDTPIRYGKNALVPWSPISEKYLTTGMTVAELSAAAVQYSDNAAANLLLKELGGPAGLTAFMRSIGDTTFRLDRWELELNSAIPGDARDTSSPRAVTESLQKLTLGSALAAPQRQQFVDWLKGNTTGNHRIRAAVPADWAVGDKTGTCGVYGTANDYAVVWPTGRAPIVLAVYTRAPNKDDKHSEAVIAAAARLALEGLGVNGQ
T4 sequence (Q6XEC0 23-265 limits assumed): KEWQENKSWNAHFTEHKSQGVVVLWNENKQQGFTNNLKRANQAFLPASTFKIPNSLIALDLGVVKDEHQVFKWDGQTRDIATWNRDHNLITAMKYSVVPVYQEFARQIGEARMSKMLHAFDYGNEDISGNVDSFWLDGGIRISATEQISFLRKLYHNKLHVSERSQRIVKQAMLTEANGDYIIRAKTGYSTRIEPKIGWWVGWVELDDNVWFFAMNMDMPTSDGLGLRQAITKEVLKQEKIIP
T3 sequence (Q9L5C7 entry or part of it): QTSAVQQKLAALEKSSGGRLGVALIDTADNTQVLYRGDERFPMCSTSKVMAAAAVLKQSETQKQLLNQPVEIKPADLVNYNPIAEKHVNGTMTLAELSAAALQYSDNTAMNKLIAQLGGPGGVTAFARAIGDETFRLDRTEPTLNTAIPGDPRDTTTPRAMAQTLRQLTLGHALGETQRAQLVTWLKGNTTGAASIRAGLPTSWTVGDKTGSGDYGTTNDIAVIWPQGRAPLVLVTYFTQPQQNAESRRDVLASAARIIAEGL
T5 sequence (P0AD64 22-286 L31Q/G234S/E235K): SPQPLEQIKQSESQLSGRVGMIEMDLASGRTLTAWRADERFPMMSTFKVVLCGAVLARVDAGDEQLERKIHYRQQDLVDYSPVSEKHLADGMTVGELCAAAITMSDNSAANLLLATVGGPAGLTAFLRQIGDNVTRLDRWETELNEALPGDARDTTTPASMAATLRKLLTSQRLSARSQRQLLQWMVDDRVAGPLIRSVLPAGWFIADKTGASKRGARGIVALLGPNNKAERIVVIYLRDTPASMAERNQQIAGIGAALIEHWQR
T1 sequence (C7C422 29-270 limits assumed): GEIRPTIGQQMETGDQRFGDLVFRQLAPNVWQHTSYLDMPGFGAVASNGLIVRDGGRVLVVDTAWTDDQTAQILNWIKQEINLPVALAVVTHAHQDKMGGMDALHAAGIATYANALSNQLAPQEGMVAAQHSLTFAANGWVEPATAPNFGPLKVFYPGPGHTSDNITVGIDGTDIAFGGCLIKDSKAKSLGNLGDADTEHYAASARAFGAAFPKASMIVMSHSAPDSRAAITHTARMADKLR

Row | SMILES | Zone of Growth Inhibition [4] | Zone of Growth Inhibition [5] | Zone of Growth Inhibition [7] | Zone of Growth Inhibition [9] | Zone of Growth Inhibition [10] | Ki [13] | β-lactamase inhibitory activity, selectivity [14] | Ki [15] | Ki [16] | Ki [17] | Ki [18] | Ki [19] | Ki [20] | Ki [21] | Zone of Growth Inhibition [6] | Zone of Growth Inhibition [12] | Zone of Growth Inhibition [11] | other results
1 | CC(C)(C)OC(=O)NCCSC[C@@H]1NC(=O)[C@H]1NC(=O)OCC1c2ccccc2-c2ccccc21 [Compound 41] | 15V | 13P | 13P | 16P | 15P |  |  |  |  |  |  |  |  |  |  |  |  | MIC [1]: > 50 µM; antibacterial activity ([2]; E. coli strains DC0 and DC2): only active against the permeability mutant DC0; antibacterial activity ([2]; P. aeruginosa, both the wild type (K799/0 wt) and the permeability mutant (K799/61)): showed activity; antibacterial activity ([2]; against B. subtilis and M. vaccae, A. baumannii, P. aeruginosa and E. coli): moderate activity; Zone of Growth Inhibition [3]: 17V; zone of inhibition at 2000 µM ([6]; Escherichia coli, read-out: Zone of Growth Inhibition): 0 mm; zone of inhibition at 2000 µM ([8]; Micrococcus luteus, ATCC10240, read-out: Zone of Growth Inhibition): 0 mm; zone of inhibition at 2000 µM ([11]; Staphylococcus aureus, read-out: Zone of Growth Inhibition): 0 mm; zone of inhibition at 2000 µM ([12]; Burkholderia dolosa, read-out: Zone of Growth Inhibition): 0 mm
2 | O=C1CC(CBr)N1OS(=O)(=O)/C=C/c1ccccc1 (stereo not drawn) [Compound 61a] | 0 mm | 15* mm | 0 mm | 0 mm | 0 mm | > 160 µM | inhibited enzymes from both classes A and D | > 160 µM | > 160 µM | 19.3 µM | 0.149 µM | 1.48 µM | 0.779 µM | > 160 µM | 0 mm | 0 mm |  | Zone of Growth Inhibition [8]: 17 mm
3 | O=C1CC(CBr)N1OS(=O)(=O)c1cccc2ccccc12 (stereo not drawn) [Compound 61b] | 0 mm | 12 mm | 0 mm | 0 mm | 0 mm | > 160 µM | inhibited enzymes from both classes A and D | > 160 µM |  | > 160 µM | > 160 µM | 4.67 µM | 0.198 µM | > 160 µM | 0 mm | 0 mm | 14P | 
4 | O=C1CC(CBr)N1OS(=O)(=O)c1ccc2ccccc2c1 (stereo not drawn) [Compound 61c] | 0 mm |  | 0 mm | 0 mm | 0 mm | > 160 µM | active only against the class A enzyme SHV-12 | > 160 µM | > 160 µM | > 160 µM | > 160 µM | > 160 µM | 0.19 µM | > 160 µM | 0 mm | 0 mm | 15 mm | 
